Assay results as given in BindingDB's records for doi:10.1016/j.ejmech.2015.10.016 (University of Groningen, 2015).

target: T1, Histone acetyltransferase KAT8 (Homo sapiens, UniProt Q9H7Z6); assay: Inhibition of recombinant N-terminal His6-tagged KAT8 (unknown origin) expressed in Escherichia Coli BL21 DE3 cells assessed as reduction of Co A level using histone H4 substrate after 15 mins by CPM fluorescence assay
T1 sequence (Q9H7Z6 whole entry): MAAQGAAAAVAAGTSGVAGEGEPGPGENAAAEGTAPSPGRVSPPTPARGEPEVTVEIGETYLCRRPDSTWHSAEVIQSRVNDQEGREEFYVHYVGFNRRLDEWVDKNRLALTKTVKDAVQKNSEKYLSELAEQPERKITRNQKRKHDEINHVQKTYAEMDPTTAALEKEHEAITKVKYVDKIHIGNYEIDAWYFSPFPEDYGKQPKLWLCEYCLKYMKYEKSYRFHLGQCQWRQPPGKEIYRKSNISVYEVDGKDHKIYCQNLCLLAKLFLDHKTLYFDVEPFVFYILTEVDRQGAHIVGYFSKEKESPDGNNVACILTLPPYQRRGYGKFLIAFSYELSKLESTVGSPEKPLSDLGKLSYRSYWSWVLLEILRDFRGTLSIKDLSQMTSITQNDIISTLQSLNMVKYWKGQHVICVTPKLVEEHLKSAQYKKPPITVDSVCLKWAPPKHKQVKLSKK

SMILES | IC50 [µM]
CCCCCc1ccc(O)c(C(=O)O)c1 | > 631
CCCCCCCSCC(=O)c1ccccc1O | > 631
CCCCCc1cccc(O)c1C(=O)O [6-Pentylsalicylic Acid] | > 631
O=C(O)c1c(O)cccc1CCCCCO | > 631
CCCCCCCCCCc1cccc(O)c1C(=O)O | 123

Now from value to compound:

IC50 [µM] | SMILES
> 631 | CC1=NN(c2ccc(C(=O)O)cc2)C(=O)/C1=C/c1ccc(-c2cc(C)c(C)cc2[N+](=O)[O-])o1
525 | O=C(O)c1c(O)cccc1CCCCCCCCCCCO
191 | CCCCCCCCCCc1ccc(O)c(C(=O)O)c1
263 | CCCCCCCCCCCCCCCc1ccc(O)c(C(=O)O)c1
